Legend:
HLA-B*07 = HLA-B*07 (Homo sapiens, UniProt P01889); test: MHC binding assay (UV-ligand exchange, β2m ELISA)
Source text: Candidate peptides for T cell based therapies according to the present invention were further tested for their MHC binding capacity (affinity). The individual peptide-MHC complexes were produced by UV-ligand exchange, where a UV-sensitive peptide is cleaved upon UV-irradiation, and exchanged with the peptide of interest as analyzed. Only peptide candidates that can effectively bind and stabilize the peptide-receptive MHC molecules prevent dissociation of the MHC complexes. To determine the yield of the exchange reaction, an ELISA was performed based on the detection of the light chain (β2m) of stabilized MHC complexes. The assay was performed as generally described in Rodenko et al. (Rodenko et al., 2006).
96 well MAXISorp plates (NUNC) were coated over night with 2 ug/ml streptavidin in PBS at room temperature, washed 4× and blocked for 1 h at 37° C. in 2% BSA containing blocking buffer. […] Peptide-MHC monomers of the UV-exchange reaction were diluted 100-fold in blocking buffer. Samples were incubated for 1 h at 37° C., washed four times, incubated with 2 ug/ml HRP conjugated anti-β2m for 1h at 37° C., washed again and detected with TMB solution that is stopped with […]. Absorption was measured at 450 nm. Candidate peptides that show a high exchange yield (preferably higher than 50%, most preferred higher than 75%) are generally preferred for a generation and production of antibodies or fragments thereof, and/or T cell receptors or fragments thereof, as they show sufficient avidity to the MHC molecules and prevent dissociation of the MHC complexes.

CD8+ T cells = test: In vitro T-cell priming assay with aAPCs (in vitro immunogenicity for MHC class I presented peptides); assay type: cell-based, human; details: in vitro immunogenicity, HLA B*07
HLA-B*44 = test: MHC binding assay (UV-ligand exchange, β2m ELISA); parameters: species or system human; details: UV-ligand exchange, β2m ELISA

## 220 (SPSVSQLSVL; listed as Homo sapiens) [compound 220]
HLA-B*07
  Peptide exchange (peptide exchange yield, MHC class I binding score): “++++” (>75% = ++++)
CD8+ T cells
  Wells positive [%]: “++++” (>=70% = ++++)

## 221 (VPDVAQFVL; listed as Homo sapiens) [compound 221]
HLA-B*07
  Peptide exchange (peptide exchange yield, MHC class I binding score): “++++” (>75% = ++++)
CD8+ T cells
  Wells positive [%]: “++” (20%-49% = ++)

## 222 (NPFYPEVEL; listed as Homo sapiens) [compound 222]
HLA-B*07
  Peptide exchange (peptide exchange yield, MHC class I binding score): “+++” (>50 = +++)
CD8+ T cells
  Wells positive [%]: “+” (<20% = +)

## 223 (YPKDIYSSF; listed as Homo sapiens) [compound 223]
HLA-B*07
  Peptide exchange (peptide exchange yield, MHC class I binding score): “++++” (>75% = ++++)
CD8+ T cells
  Wells positive [%]: “++” (20%-49% = ++)

## 224 (GPQPWHAAL; listed as Homo sapiens) [compound 224]
HLA-B*07
  Peptide exchange (peptide exchange yield, MHC class I binding score): “++++” (>75% = ++++)
CD8+ T cells
  Wells positive [%]: “++” (20%-49% = ++)

## 225 (LPFDGPGGIL; listed as Homo sapiens) [compound 225]
HLA-B*07
  Peptide exchange (peptide exchange yield, MHC class I binding score): “++++” (>75% = ++++)
CD8+ T cells
  Wells positive [%]: “++++” (>=70% = ++++)

## 226 (SPRMSGLLSQT; listed as Homo sapiens) [compound 226]
HLA-B*07
  Peptide exchange (peptide exchange yield, MHC class I binding score): “++++” (>75% = ++++)
CD8+ T cells
  Wells positive [%]: “+++” (50%-69% = +++)

## 228 (YPRGNHWAVGHL; listed as Homo sapiens) [compound 228]
HLA-B*07
  Peptide exchange (peptide exchange yield, MHC class I binding score): “++++” (>75% = ++++)
CD8+ T cells
  Wells positive [%]: “++” (20%-49% = ++)

## 231 (RPRALRDLQL; listed as Homo sapiens) [compound 231]
HLA-B*07
  Peptide exchange (peptide exchange yield, MHC class I binding score): “++++” (>75% = ++++)
CD8+ T cells
  Wells positive [%]: “++” (20%-49% = ++)

## 232 (RPRALRDLQLL; listed as Homo sapiens) [compound 232]
HLA-B*07
  Peptide exchange (peptide exchange yield, MHC class I binding score): “++++” (>75% = ++++)
CD8+ T cells
  Wells positive [%]: “+++” (50%-69% = +++)

## 233 (KPYQGNPTF; listed as Homo sapiens) [compound 233]
HLA-B*07
  Peptide exchange (peptide exchange yield, MHC class I binding score): “++++” (>75% = ++++)
CD8+ T cells
  Wells positive [%]: “+” (<20% = +)

## 237 (RPAATAVISL; listed as Homo sapiens) [compound 237]
HLA-B*07
  Peptide exchange (peptide exchange yield, MHC class I binding score): “+++” (>50 = +++)
CD8+ T cells
  Wells positive [%]: “+” (<20% = +)

## 241 (SARLATDAL; listed as Homo sapiens) [compound 241]
HLA-B*07
  Peptide exchange (peptide exchange yield, MHC class I binding score): “++++” (>75% = ++++)
CD8+ T cells
  Wells positive [%]: “+++” (50%-69% = +++)

## 242 (SPRWLPVSL; listed as Homo sapiens) [compound 242]
HLA-B*07
  Peptide exchange (peptide exchange yield, MHC class I binding score): “++++” (>75% = ++++)
CD8+ T cells
  Wells positive [%]: “++++” (>=70% = ++++)

## 244 (FPYVRDFVM; listed as Homo sapiens) [compound 244]
HLA-B*07
  Peptide exchange (peptide exchange yield, MHC class I binding score): “++++” (>75% = ++++)
CD8+ T cells
  Wells positive [%]: “+” (<20% = +)

## 245 (RIREHVPQL; listed as Homo sapiens) [compound 245]
HLA-B*07
  Peptide exchange (peptide exchange yield, MHC class I binding score): “+++” (>50 = +++)
CD8+ T cells
  Wells positive [%]: “++” (20%-49% = ++)

## 248 (IPNWARQDL; listed as Homo sapiens) [compound 248]
HLA-B*07
  Peptide exchange (peptide exchange yield, MHC class I binding score): “++++” (>75% = ++++)
CD8+ T cells
  Wells positive [%]: “++++” (>=70% = ++++)

## 249 (VPSSRILQL; listed as Homo sapiens) [compound 249]
HLA-B*07
  Peptide exchange (peptide exchange yield, MHC class I binding score): “++++” (>75% = ++++)
CD8+ T cells
  Wells positive [%]: “+++” (50%-69% = +++)

## 250 (SPRDFLSGL; listed as Homo sapiens) [compound 250]
HLA-B*07
  Peptide exchange (peptide exchange yield, MHC class I binding score): “++++” (>75% = ++++)
CD8+ T cells
  Wells positive [%]: “+” (<20% = +)

## 252 (SPDIRNTTV; listed as Homo sapiens) [compound 252]
HLA-B*07
  Peptide exchange (peptide exchange yield, MHC class I binding score): “++++” (>75% = ++++)
CD8+ T cells
  Wells positive [%]: “+” (<20% = +)

## 274 (TPYQEHVAL; listed as Homo sapiens) [compound 274]
HLA-B*07
  Peptide exchange (peptide exchange yield, MHC class I binding score): “+++” (>50 = +++)
CD8+ T cells
  Wells positive [%]: “+” (<20% = +)

## 285 (FPSFLTNSL; listed as Homo sapiens) [compound 285]
HLA-B*07
  Peptide exchange (peptide exchange yield, MHC class I binding score): “++++” (>75% = ++++)
CD8+ T cells
  Wells positive [%]: “++++” (>=70% = ++++)

## 292 (SPQRLRGLLL; listed as Homo sapiens) [compound 292]
HLA-B*07
  Peptide exchange (peptide exchange yield, MHC class I binding score): “+++” (>50 = +++)
CD8+ T cells
  Wells positive [%]: “+++” (50%-69% = +++)

## 293 (RPRSALPRLLLP; listed as Homo sapiens) [compound 293]
HLA-B*07
  Peptide exchange (peptide exchange yield, MHC class I binding score): “++++” (>75% = ++++)
CD8+ T cells
  Wells positive [%]: “++” (20%-49% = ++)

## 294 (GPTPNTGAAL; listed as Homo sapiens) [compound 294]
HLA-B*07
  Peptide exchange (peptide exchange yield, MHC class I binding score): “++++” (>75% = ++++)
CD8+ T cells
  Wells positive [%]: “+++” (50%-69% = +++)

## 319 (AEMLERVIKNY; listed as Homo sapiens) [compound 319]
HLA-B*44
  Peptide exchange (peptide exchange yield, MHC class I binding score): “++++” (>75% = ++++)

## 321 (AEMLESVIKNY; listed as Homo sapiens) [compound 321]
HLA-B*44
  Peptide exchange (peptide exchange yield, MHC class I binding score): “+++” (>50 =+++)

## 324 (TDSIHAWTF; listed as Homo sapiens) [compound 324]
HLA-B*44
  Peptide exchange (peptide exchange yield, MHC class I binding score): “+++” (>50 =+++)

## 327 (YEIEARNQVF; listed as Homo sapiens) [compound 327]
HLA-B*44
  Peptide exchange (peptide exchange yield, MHC class I binding score): “+++” (>50 =+++)

## 332 (MEVPVIKI; listed as Homo sapiens) [compound 332]
HLA-B*44
  Peptide exchange (peptide exchange yield, MHC class I binding score): “++” (>20% = ++)

## 335 (KELEATKQY; listed as Homo sapiens) [compound 335]
HLA-B*44
  Peptide exchange (peptide exchange yield, MHC class I binding score): “++” (>20% = ++)

## 336 (ASSSGPMRWW; listed as Homo sapiens) [compound 336]
HLA-B*44
  Peptide exchange (peptide exchange yield, MHC class I binding score): “++” (>20% = ++)

## 341 (EEIEGKGSFTYF; listed as Homo sapiens) [compound 341]
HLA-B*44
  Peptide exchange (peptide exchange yield, MHC class I binding score): “+++” (>50 =+++)

## 343 (TEFTTVLY; listed as Homo sapiens) [compound 343]
HLA-B*44
  Peptide exchange (peptide exchange yield, MHC class I binding score): “++” (>20% = ++)

## 344 (EEATGQFHVY; listed as Homo sapiens) [compound 344]
HLA-B*44
  Peptide exchange (peptide exchange yield, MHC class I binding score): “+++” (>50 =+++)

## 345 (IEFIHPQAF; listed as Homo sapiens) [compound 345]
HLA-B*44
  Peptide exchange (peptide exchange yield, MHC class I binding score): “++++” (>75% = ++++)

## 346 (VEAPGPVHVYW; listed as Homo sapiens) [compound 346]
HLA-B*44
  Peptide exchange (peptide exchange yield, MHC class I binding score): “++++” (>75% = ++++)

## 347 (ALNPYQYQY; listed as Homo sapiens) [compound 347]
HLA-B*44
  Peptide exchange (peptide exchange yield, MHC class I binding score): “+++” (>50 =+++)

## 348 (AEIQGNINHV; listed as Homo sapiens) [compound 348]
HLA-B*44
  Peptide exchange (peptide exchange yield, MHC class I binding score): “+++” (>50 =+++)

## 349 (AEQDMRELTY; listed as Homo sapiens) [compound 349]
HLA-B*44
  Peptide exchange (peptide exchange yield, MHC class I binding score): “+++” (>50 =+++)

## 350 (GECDVFKEIL; listed as Homo sapiens) [compound 350]
HLA-B*44
  Peptide exchange (peptide exchange yield, MHC class I binding score): “+++” (>50 =+++)

## 351 (EEVNYINTF; listed as Homo sapiens) [compound 351]
HLA-B*44
  Peptide exchange (peptide exchange yield, MHC class I binding score): “+++” (>50 =+++)

## 352 (NEVLTYIKF; listed as Homo sapiens) [compound 352]
HLA-B*44
  Peptide exchange (peptide exchange yield, MHC class I binding score): “++++” (>75% = ++++)

## 353 (GEIIMQNNW; listed as Homo sapiens) [compound 353]
HLA-B*44
  Peptide exchange (peptide exchange yield, MHC class I binding score): “++++” (>75% = ++++)

## 354 (TEDPTILRI; listed as Homo sapiens) [compound 354]
HLA-B*44
  Peptide exchange (peptide exchange yield, MHC class I binding score): “+++” (>50 =+++)

## 355 (SDMVRFHLF; listed as Homo sapiens) [compound 355]
HLA-B*44
  Peptide exchange (peptide exchange yield, MHC class I binding score): “++” (>20% = ++)

## 356 (EEGRVYLF; listed as Homo sapiens) [compound 356]
HLA-B*44
  Peptide exchange (peptide exchange yield, MHC class I binding score): “+++” (>50 =+++)

## 460 (MPMAGDMNGL; listed as Homo sapiens) [compound 460]
HLA-B*07
  Peptide exchange (peptide exchange yield, MHC class I binding score): “++++” (>75% = ++++)
CD8+ T cells
  Wells positive [%]: “++” (20%-49% = ++)

## 462 (RPFHTRATV; listed as Homo sapiens) [compound 462]
HLA-B*07
  Peptide exchange (peptide exchange yield, MHC class I binding score): “++++” (>75% = ++++)
CD8+ T cells
  Wells positive [%]: “++” (20%-49% = ++)

## 463 (TPKAGPTL; listed as Homo sapiens) [compound 463]
HLA-B*07
  Peptide exchange (peptide exchange yield, MHC class I binding score): “++++” (>75% = ++++)
CD8+ T cells
  Wells positive [%]: “+” (<20% = +)

## 473 (LPRALLSSL; listed as Homo sapiens) [compound 473]
HLA-B*07
  Peptide exchange (peptide exchange yield, MHC class I binding score): “++++” (>75% = ++++)
CD8+ T cells
  Wells positive [%]: “++” (20%-49% = ++)

## 474 (LPRLLPAL; listed as Homo sapiens) [compound 474]
HLA-B*07
  Peptide exchange (peptide exchange yield, MHC class I binding score): “++++” (>75% = ++++)
CD8+ T cells
  Wells positive [%]: “+++” (50%-69% = +++)

— patent US11292821B2, “Peptides and combination of peptides for use in immunotherapy against lung cancer, including NSCLC, SCLC and other cancers” (Immatics Biotechnologies GmbH, priority 2017, dated 2022)
